“And” between values parts separate entries of the source, which are not always exact repeats. Equal values may be shown once. Where a name gives a salt, the structure may show the parent alone. Read-outs that look alike come from different tables or passages of the source.
Key:
[1] = target: MCL-1 (Homo sapiens, UniProt Q07820, K194A/K197A/R201A); experiment: Protein-protein interaction assay MCL-1/Noxa BH3 peptide, TR-FRET (MCL-1 assay, Assay 1); type: binding; conditions: MCL-1 Assay [M] (median), MBP-MCL-1 / Noxa BH3 peptide
MCL-1, sequence (Q07820 173-321 K194A/K197A/R201A, looked up): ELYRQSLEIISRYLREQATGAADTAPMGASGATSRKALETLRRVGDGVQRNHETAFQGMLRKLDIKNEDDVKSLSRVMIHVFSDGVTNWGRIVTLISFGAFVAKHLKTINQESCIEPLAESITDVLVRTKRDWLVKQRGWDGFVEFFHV
How it was run: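 Human MBP-fused MCL-1 (aa 173-321; 1 nM final) was pre-incubated 10 min at 22 °C with compound in pH 7 Tris buffer containing NaCl, KF, Tween-20, DTT and BGG. Displacement of biotinylated Noxa BH3 peptide was read by TR-FRET (anti-MBP-Eu cryptate/streptavidin-XL665) after 1 h at 22 °C plus overnight at 4 °C. IC50 came from four-parameter fits against DMSO controls.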

[2] = target: BCL-XL (Homo sapiens, UniProt Q07817); experiment: Protein-protein interaction assay BCL-XL/Bad BH3 peptide, TR-FRET (BCL-XL assay, Assay 2); type: binding; conditions: His-BCL-XL / Bad BH3 peptide, median
BCL-XL, sequence (Q07817 1-212): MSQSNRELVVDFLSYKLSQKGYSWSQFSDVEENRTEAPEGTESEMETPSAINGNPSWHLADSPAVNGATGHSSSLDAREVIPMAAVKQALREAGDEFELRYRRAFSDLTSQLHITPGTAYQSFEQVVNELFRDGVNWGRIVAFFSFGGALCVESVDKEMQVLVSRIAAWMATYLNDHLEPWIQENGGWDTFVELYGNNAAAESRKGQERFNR

[3] = target: BCL-2 (Homo sapiens, UniProt P10415); experiment: Protein-protein interaction assay BCL-2/Bad BH3 peptide, TR-FRET (BCL-2 assay, Assay 3); type: binding; conditions: His-BCL-2 / Bad BH3 peptide, median
BCL-2, sequence (P10415 1-211): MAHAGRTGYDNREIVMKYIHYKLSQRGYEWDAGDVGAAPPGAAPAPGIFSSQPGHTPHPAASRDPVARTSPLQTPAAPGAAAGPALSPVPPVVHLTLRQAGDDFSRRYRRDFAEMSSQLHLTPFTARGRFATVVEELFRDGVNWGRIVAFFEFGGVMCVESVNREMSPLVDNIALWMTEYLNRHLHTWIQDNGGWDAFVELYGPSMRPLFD
Description: The dose-dependent inhibition by the compounds described in this invention of the interaction between BCL-2 and the BH3 domain of Bad (both human) was determined using a steady state binding competition assay with time-resolved fluorescence energy transfer (TR-FRET) readout. For that purpose BCL-2 (amino acids 1-211, C-terminal fused to a hexahistidine (6×His) tag (SEQ ID 5) and a synthetic Bad BH3-derived peptide of sequence Biotin-PEG2-PEG2-[sequence]-Nle-[sequence]-amide (SEQ ID 4) served as protein receptor and tracer ligand respectively. The recombinant BCL-2 protein (expressed in E. coli) was purchased from BPS Bioscience (San Diego, Calif., USA). The Bad BH3-derived peptide can be obtained from e.g. Biosyntan (Berlin, Germany).
For that, 100-fold concentrated DMSO solutions were prepared by serial dilutions (1:3.4) of a 2 mM stock solution in a clear, 384-well microtiter plate (Greiner Bio-One, Frickenhausen, Germany). From there, 50 nl were transferred in a dark test plate (Greiner Bio-One, Frickenhausen, Germany). The assay was initiated by addition of 2 μl of a 2,5-fold concentrated His-BCL-2 solution (usually for a 1 nM end concentration in 5 μl reaction volume) in aqueous assay buffer [50 mM Tris/HCl pH 7, 100 mM sodium chloride (NaCl), 50 mM potassium fluoride (KF), 0.005% Tween-20, 2 mM DTT, 0.1% bovine gamma globulin (BGG)] to the compounds in the assay plate. This was followed by a 10-minute incubation step at 22° C. for pre-equilibration of the putative complex between His-BCL-2 and the compounds.
The mixture was incubated in the dark for one hour at 22° C. and then overnight at 4° C. The formation of BCL-2/Bad complexes was determined by measuring the resonance energy transfer of the anti-His-Eu-cryptate antibody to the streptavidin-XL665 present in the reaction. For that purpose, the fluorescence emission at 620 nm and 665 nm after excitation at 330-350 nm was measured in a TR-FRET measuring instrument, for instance a Rubystar or a Pherastar (both from BMG Lab Technologies, Offenburg, Germany) or a Viewlux (Perkin-Elmer). The ratio of the emission at 665 nm and at 622 nm was used as indicator of the amount of BCL-2/Bad complexes present.
The resulting data (ratio) were normalized, taking 0% inhibition as the mean value of control measurements (usually 32 data points) where all reagents were included. In this case 50 nl DMSO were used instead of compounds. […] IC50 values were determined by regression analysis based on a 4 parameter equation (minimum, maximum, IC50, Hill; Y=Max+(Min−Max)/(1+(X/IC50)^Hill) using the Screener Software (Genedata).

[4] = tested on: SUDHL5; experiment: Induction of caspase-3/7 activity in SUDHL5 cells (Assay 4); type: cell-based
How it was run: (§1)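 DLBCL lines SUDHL5 and SUDHL10 were treated with compound for 3 h at 37 °C. Caspase-3/7 activity was then read by Caspase-Glo 3/7 luminescence after 1 h at 37 °C. Medium-only background was subtracted and values were normalized to the mean of DMSO-treated cells.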

[5] = tested on: SUDHL10; experiment: Induction of caspase-3/7 activity in SUDHL10 cells (Assay 4); type: cell-based
How it was run: as §1

[6] = tested on: SUDHL5; experiment: Induction of cytotoxicity in SUDHL5 cells, CellTiter-Glo (Assay 6); type: cell-based; conditions: SUDHL5, 5 hours incubation, median, read-out: Cytotox SUDHL5 [M] (median)
How it was run: (§2)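 Viability of treated lymphoma cells is measured by luminescence with CellTiter-Glo reagent, incubated 15 minutes at room temperature. Compound exposure lasts 5 hours at 37° C.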

[7] = tested on: SUDHL10; experiment: Induction of cytotoxicity in SUDHL10 cells, CellTiter-Glo (Assay 6); type: cell-based; conditions: SUDHL10, 5 hours incubation, median, read-out: Cytotox SUDHL10 [M] (median)
How it was run: as §2

[8] = tested on: SUDHL5; experiment: Anti-proliferative effect in SUDHL5 cells, CellTiter-Glo (Assay 7); type: cell-based
How it was run: (§3)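 CellTiter-Glo luminescence after 72 h compound exposure at 37 °C; a parallel time-zero plate was read the same way. IC50 derived relative to day 0 signal and DMSO control.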

[9] = tested on: AMO-1; experiment: Anti-proliferative effect in AMO-1 cells, CellTiter-Glo (Assay 7); type: cell-based; conditions: AMO-1, 72 hours incubation, CellTiter-Glo, several values per example, read-out: Antiproli AMO-1
How it was run: as §3

[10] = tested on: A2780; experiment: Anti-proliferative effect in A2780 cells, CellTiter-Glo (Assay 7); type: cell-based; conditions: Homo sapiens, A2780, 72 h, several values per example
How it was run: as §3

[11] = tested on: MV-4-11; experiment: Anti-proliferative effect in MV-4-11 cells, CellTiter-Glo (Assay 7); type: cell-based; conditions: Homo sapiens, MV4-11, 72 h, read-out: Antiproli MV-4-11 [M], MV-4-11, 72 hours incubation, CellTiter-Glo; several values per example
How it was run: as §3

[12] = read-out: Caspase SUDHL5 [M] (median), SUDHL5, 3 hours treatment, Caspase-Glo 3/7
[13] = read-out: Caspase SUDHL10 [M] (median), SUDHL10, 3 hours treatment, Caspase-Glo 3/7
[14] = read-out: Antiproli A2780 [M], A2780, 72 hours incubation, CellTiter-Glo

SMILES | IC50 [1] [M] | IC50 [2] [µM] | IC50 [3] [µM] | EC50 ([4]; Homo sapiens, SU-DHL-5, 3 h, SUDHL5, 3 hours treatment, Caspase-Glo 3/7, median, read-out: Caspase SUDHL5 [M] (median)) | EC50 ([5]; Homo sapiens, SU-DHL10, 3 h, SUDHL10, 3 hours treatment, Caspase-Glo 3/7, median, read-out: Caspase SUDHL10 [M] (median)) | IC50 ([6]; Homo sapiens, SU-DHL-5, 5 h) [M] | IC50 ([7]; Homo sapiens, SU-DHL10, 5 h) [M] | IC50 ([8]; Homo sapiens, SU-DHL-5, 72 h, SUDHL5, 72 hours incubation, CellTiter-Glo, median, read-out: Antiproli SUDHL5 [M] (median)) | IC50 ([9]; Homo sapiens, AMO1, 72 h) [µM] | IC50 ([10]; A2780, 72 hours incubation, CellTiter-Glo, read-out: Antiproli A2780) [M] | EC50 [4, 12] [M] | EC50 [5, 13] [M] | IC50 [6] [M] | IC50 [7] [M] | IC50 ([8]; Homo sapiens, SU-DHL-5, 72 h, read-out: Antiproli SUDHL5 [M] (median), SUDHL5, 72 hours incubation, CellTiter-Glo) | IC50 [9] | IC50 [10, 14] [M] | IC50 ([8]; read-out: Antiproli SUDHL5 [M] (median), SUDHL5, 72 hours incubation, CellTiter-Glo) | IC50 [11] [M]
Cc1nn(C)c2c1-c1c(F)ccc3c(CCCOc4cccc5ccccc45)c(C(=O)O)n(c13)Cc1ccccc1COC2 (racemic) [Example 80, (rac)-15-Fluoro-12,14-dimethyl-1-(3-(naphthalen-1-yloxy)propyl)-4,9,11,12-tetrahydrobenzo-[3,4]pyrazolo[4′,3′:9,10][1]oxa[6]azacycloundecino[8,7,6-hi]indole-2-carboxylic Acid] | 7.6e-09 | > 20 | > 20 | 5.2e-06 | > 2.5e-05 | 4.3e-06 | > 1.1e-05 | 7.7e-06 | 25.7 | 1.78e-05 | – | – | – | – | – | – | – | – | –
Cc1c2c(nn1C)CN(C)Cc1ccccc1Cn1c(C(=O)O)c(CCCOc3cccc4ccccc34)c3cccc-2c31 (single isomer, unassigned; enantiomer 1) [Example 15, 4,5,8-Trimethyl-17-[3-(naphthalen-1-yloxy)propyl]-7,8,9,14-tetrahydro-5H-indolo[1,7-bc]-pyrazolo[4,3-e][2,8]benzodiazacycloundecine-16-carboxylic acid-N-ethylethanamine Salt (Enantiomer 1)] | 6.9e-09 | > 20 | > 20 | – | – | – | – | – | – | – | 2.6e-06 | 1.2e-05 | 3.3e-06 | 1.1e-05 | 2.8e-06 | 6.25 µM and 5.63 µM | > 3.3e-05 | – | –
CCc1c2c(nn1C)COCc1ccccc1Cn1c(C(=O)O)c(CCCOc3cccc4ccccc34)c3ccc(F)c-2c31 (single isomer, unassigned; enantiomer 1) [Example 71, (−)-4-Ethyl-3-fluoro-5-methyl-17-{3-[(naphthalen-1-yl)oxy]propyl}-5,7,9,14-tetrahydroindolo[7,1-fg]pyrazolo[3,4-d][2,8]benzoxazacycloundecine-16-carboxylic acid-N-ethylethanamine Salt (Enantiomer 1)] | 1.2e-09 | > 20 | 12.8 | – | – | – | – | – | – | – | 1.6e-06 | 4e-06 | 1.9e-06 | 3.6e-06 | – | 3.48 µM | 9.41e-06 | 2.5e-06 | 4.81e-06

— US20210253598A1, “ARYL ANNULATED MACROCYCLIC INDOLE DERIVATIVES” (priority 2017, published 2021)
